Laboratory results: patent publication EP0358766A1, “METHOD OF STERILIZING PLANT ANTHERS” (VSESOJUZNY NAUCHNO-ISSLEDOVATELSKY INST. SELSKOKHOZYAISTV. …, priority 1988, dated 1989)
Like-named read-outs stand apart in the source and are kept apart here.

Assays:
[1] = system: Sommerweizens Sorte Moskowskaya 35; assay: Field test of gametocidal activity, spring wheat Moskowskaya 35; format: in vivo, Weizen; conditions: for Kornzahl der Ähre bei freier Bestäubung / Kornzahl der Ähre im Isolator / Prozentsatz des Ansetzens von Samen bei freier Bestäubung: Moskowskaya 35, period V, 1% aqueous emulsion, 6 kg/ha in 600 l water; for Prozentsatz des Ansetzens von Samen bei freier Bestäubung: control = 100; for pest or weed control at 6000 g/ha: read-out: Prozentsatz der Sterilität
Description: (§1) Die gametozide Aktivität der erfindungsgemäßen Sterilisationsmittel war in Feldversuchen in verschiedenen bodenklimatischen Zonen mit Teilstücken von 10 m^2 Größe in dreibis viermaliger Wiederholung festgestellt. Jedes Sterilisationsmittel wurde mindenstens 5 Jahre lang geprüft.
(§2) Die Entwicklung der Perioden der Organogenese wird zytologisch überwacht. Die Behandlung von Pflanzen mit dem Sterilisationsmittel erfolgt am Anfang der fünften Periode der Organogenese nach Kupermann.
(§3) Mit dem Ährenschieben verwirklicht man die Isolierung von Hauptähren und anderen Stockwerken in Pergametbeuteln. Bei Weizen und Tritikale werden Einzelisolatoren benutzt. Bei Roggen schließt man je 1 Ähre von […] verschiedenen nebeneinander befindlichen Pflanzen unter einen gemeinsamen Isolator ein. Bei Hirse wird jede Rispe getrennt isoliert. Der Sterilitätsprozentsatz (X) für Weizen, Roggen, Tritikale und Hirse wird nach der Formel [formula] ermittelt.
(§4) Die Kornzahl in nicht isolierten Ähren von Kontrollpflanzen wird bedingt für 100 % Ansetzen bei freier Bestäubung angenommen.
(§5) Um zuverlässige Angaben zu erhalten, verwendet man 20 bis 25 Isolatoren je Wiederholung für Weizen und Tritikale, 10 bis 15 Isolatoren jeder Wiederholung für Roggen und Hirse.
Pflanzen des Sommerweizens Sorte Moskowskaya 35 werden in der V. Periode der Organogenese (nach Kupermann) mit einer l%igen wäßrigen Emulsion von 1,1,3-Tribrompropan, […], 1,1,2,3-Tetrabrompropan, 1,2,3-Tribrompropan, 1,2-Dibrompropan, 1,1,3-Tribrom-3-chlorpropan, 1,2-Dibrom-3-chlorpropan, 1,3-Dibrompropan, 1,1,1,3-Tetrabromheptan bzw. 1,1,3-Tribromheptan behandelt. Die Emulsion enthält als Emulgierungsmittel 0,5 Masse% C12-C14-Kalzium- alkylbenzolsulfonat und als Adjuvans 0,01 Masse% Dimethylformamid. Der Verbrauch an Präparat beträgt 6 kg/ha bei 600 1 Wasserdurchsatz. Als Kontrolle dienen Pflanzen, behandelt mit dem Verdünner ohne Sterilisationsmittel.
Die Prüfergebnisse sind in der Tabelle 2 angegeben. Die gleichen Ergebnisse sind bei der Behandlung des Sommerweizens Sorte Moskowskaya 35 in der VI.Periode der Organogenese erhalten.

[2] = system: Winterweizens Sorte Mironowskaya 808; assay: Field test of gametocidal activity (anther sterilisation), winter wheat Mironowskaya 808; format: in vivo, Weizen; conditions: for Prozentsatz des Ansetzens von Samen bei freier Bestäubung: control = 100; for pest or weed control at 1 %, 10000 g/ha: read-out: Prozentsatz der Sterilität %
Description: as §1, §2, §3, §4, §5
Pflanzen des Winterweizens Sorte Mironowskaya 808 werden in der V.Periode der Organogenese durch Zerstäubung der 2%igen wäßrigen Emulsion von 1,1,3-Tribrompropan mit Hilfe einer Rückenspritze behandelt.
Als Emulgierungsmittel setzt man 0,5 Masse% C12-C14--Kalziumalkylbenzolsulphonat zu. Als Adjuvans enthält die Emulsion 0,01 Masse% Dimethylsulfoxid. Der Verbrauch an Präparat beträgt 20 kg/ha bei 1000 Liter Wasserdurchsatz. Als Kontrolle dienen Pflanzen, behandelt mit einem Verdünner ohne Sterilisationsmittel. Die Ergebnisse sind in der Tabelle 1 angegeben.
Der ProzeB wird analog zu dem in Beispiel 1 beschriebenen durchgeführt. Als Sterilisationsmittel verwendet man eine 2%ige waßrige Emulsion von 1,1,3-Tribrom-4-chlorbutan, 1,1,2,3-Tetrabrompropan. Die Prüfergebnisse sind in der Tabelle 1 angegeben.
Der Prozeß wird analog zu dem in Beispiel 1 beschriebenen durchgeführt, nur daß man 1%ige wäßrige Emulsion von 1,2,3-Tribrompropan, 1,2-Dibrompropan, 1,1,3-Tribrom-3--chlorpropan, 1,2-Dibrom-3-chlorpropan, 1,3-Dibrompropan, 1,1,1,3-Tetrabromheptan, 1,1,3-Tribromheptan, 1,2-Dibromheptan verwendet. Die Präparatdosis beträgt 10 kg ha. Die Prüfergebnisse sind in der Tabelle 1 angegeben. Die gleichen Ergebnisse sind bei der Behandlung des Weizens Sorte Mironowskaya 808 in der VI. Periode der Organogenese erhalten.

[3] = system: diploidem Roggen Kharkovskaya 55; assay: Field test of gametocidal activity, diploid rye Kharkovskaya 55; format: in vivo; conditions: for Prozentsatz des Ansetzens von Samen bei freier Bestäubung: control = 100
Description: as §1, §2, §3, §4, §5
Pflanzen von diploidem Roggen Kharkovskaya 55 werden in der V. Periode der Organogenese mit einer l%igen wäßrigen Emulsion von 1,1,3-Tribrompropan, 1,2,3-Tribrompropan, 1,2-Dibrompropan, 1,1,3-Tribrom-3-chlorpropan, 1,2--Dibrom-3-chlorpropan, 1,1,1,3-Tetrabromheptan, 1,1,3-Tribromheptan bzw. 1,2-Dibromheptan behandelt. Die Emulsion enthält 0,5 Masse% C12-C14-Kalziumalkylbenzolsulfonat und 0,01 Masse% Dimethylformamid als Adjuvans. Der Verbrauch an Präparat beträgt 6 kg/ha bei 600 1 Wasserdurchsatz. Die Prüfergebnisse sind in der Tabelle 13 angegeben. Die gleichen Ergebnisse sind bei der Behandlung von diploidem Roggen Kharkovskaya 55 in der VI. Periode der Organogenese erhalten.

diploidem Roggen Chulpan = assay: Field test of gametocidal activity, diploid rye Chulpan; format: in vivo; conditions: for Prozentsatz des Ansetzens von Samen bei freier Bestäubung: control = 100
Description: as §1, §2, §3, §4, §5
Pflanzen von diploidem Roggen Chulpan werden in der V.Periode der Organogenese mit einer 1%igen wäßrigen Emulsion von 1,1,3-Tribrompropan, 1,1,3-Tribrom-4-chlorbutan, 1,1,2,3-Tetrabrompropan, 1,2,3-Tribrompropan, 1,2-Dibrompropan, 1,1,3-Tribrom-3-ohlorpropan, 1,2-Dibrom-3--chlorpropan, 1,3-Dibrompropan, 1,1,1,3-Tetrabromheptan, 1,1,3-Tribromheptan bzw. 1,2-Dibromheptan behandelt. Die Emulsion enthält 0,5 Masse% C12-C14-Kalziumalkylbenzolsul- fonat und 0,01 Masse% Dimethylsulfoxid. Der Verbrauch an Präparat beträgt 10 kg/ha. Die Prüfergebnisse sind in der Tabelle 11 angegeben. Die gleichen Ergebnisse sind bei der Behandlung von diploidem Roggen Chulpan in der VI. Periode der Organogenese erhalten.

[4] = system: Hirse Sorte Mironovskoye 94; assay: Field test of gametocidal activity, millet Mironovskoye 94; format: in vivo; conditions: for Prozentsatz des Ansetzens von Samen bei freier Bestäubung: control = 100
Description: as §1, §2, §3, §4, §5
Pflanzen der Hirse Sorte Mironovskoye 94 werden in der V.Periode der Organogenese mit einer 1%igen wäßrigen Emulsion von 1,1,3-Tribrompropan, 1,2,3-Tribrompropan, 1,2-Dibrompropan, 1,2-Dibrom-3-chlorpropan, 1,3-Dibrompropan, 1,1,1,3-Tetrabromheptan, 1,1,3-Tribromheptan, 1,2-Dibromheptan behandelt. Die Emulsion enthält 0,5 Masse% C12-C14--Kalziumalkylbenzolaulfonat und 0,01 Masse% Dimethylsulfoxid als Adjuvans. Der Verbrauch an Präparat beträgt 6 kg/ha bei 600 1 Wasserdurchsatz. Die Prüfergebnisse sind in der Tabelle 15 angegeben. Die gleichen Ergebnisse sind bei der Behandlung der Hirse Sorte Mironovskoye 94 in der VI. Periode der Organogenese erhalten.

[5] = Mironowskaya 808, period V of organogenesis, 1% aqueous emulsion, 10 kg/ha
[6] = Kharkovskaya 55, period V, 1% aqueous emulsion, 6 kg/ha in 600 l water
[7] = read-out: Prozentsatz der Sterilität
[8] = Chulpan, period V, 1% aqueous emulsion, 10 kg/ha
[9] = Mironovskoye 94, period V, 1% aqueous emulsion, 6 kg/ha in 600 l water

Compound | Kornzahl der Ähre bei freier Bestäubung [1] | Kornzahl der Ähre im Isolator [1] | Prozentsatz des Ansetzens von Samen bei freier Bestäubung [1] | pest or weed control at 6000 g/ha [1] [%] | Kornzahl der Ähre bei freier Bestäubung [2, 5] | Kornzahl der Ähre im Isolator [2, 5] | Prozentsatz des Ansetzens von Samen bei freier Bestäubung [2, 5] | pest or weed control at 1 %, 10000 g/ha [2] [%] | Kornzahl der Ähre bei freier Bestäubung [3, 6] | Kornzahl der Ähre im Isolator [3, 6] | Prozentsatz des Ansetzens von Samen bei freier Bestäubung [3, 6] | pest or weed control at 6000 g/ha [3, 7] [%] | Kornzahl der Ähre bei freier Bestäubung (diploidem Roggen Chulpan; [8]) | Kornzahl der Ähre im Isolator (diploidem Roggen Chulpan; [8]) | Prozentsatz des Ansetzens von Samen bei freier Bestäubung (diploidem Roggen Chulpan; [8]) | pest or weed control at 10000 g/ha (diploidem Roggen Chulpan; [7]) [%] | Kornzahl der Rispe bei freier Bestäubung [4, 9] | Kornzahl der Rispe im Isolator [4, 9] | Prozentsatz des Ansetzens von Samen bei freier Bestäubung [4, 9] | pest or weed control at 6000 g/ha [4, 7] [%] | also measured
ClCC(Br)CBr (centres unmarked) [Beispiel 7, 1,2-Dibrom-3-chlorpropan] | 33,8 | 0,0 | 88,5% | 100 | 33,8 | 0,0 | 90,6% | 100 | 39,5 | 0,0 | 87,6% | 100 | 42,5 | 0,0 | 84,8% | 100 | 202,6 | 0,0 | 82,8% | 100 | 
CCCCC(Br)CC(Br)(Br)Br (centres unmarked) [Beispiel 9, 1,1,1,3-Tetrabromheptan] | 35,8 | 0,1 | 93,7% | 99.9 | 31,4 | 0,2 | 75,5% | 99.5 | 37,1 | 0,0 | 100,0% | 100 | 48,9 | 0,2 | 97,6% | 99.6 | 200,7 | 0,0 | 81,7% | 100 | 
CCCCCC(Br)CBr (centres unmarked) [Beispiel 11, 1,2-Dibromheptan] |  |  |  |  | 39,7 | 0,0 | 95,4% |  | 34,0 | 0,0 | 91,6% |  | 48,3 | 0,0 | 96,4% |  | 159,6 | 0,0 | 65,2% |  | pest or weed control at 1 %, 10000 g/ha [2, 5]: 100%; percent sterility at 6000 g/ha ([3]; Kharkovskaya 55, period V, 1% aqueous emulsion, 6 kg/ha in 600 l water, read-out: Prozentsatz der Sterilität): 100%; percent sterility at 10000 g/ha (diploidem Roggen Chulpan; Chulpan, period V, 1% aqueous emulsion, 10 kg/ha, read-out: Prozentsatz der Sterilität): 100%; percent sterility at 6000 g/ha ([4]; Mironovskoye 94, period V, 1% aqueous emulsion, 6 kg/ha in 600 l water, read-out: Prozentsatz der Sterilität): 100%
